# Laboratory results published in patent US20110136898A1, “TREATMENT OF RETINAL DEGENERATION” (UNIVERSITY COLLEGE CORK, NATIONAL UNIVERSITY OF IRELAND, …, priority 2008, published 2011).
# Entries after “also recorded” stand apart in the source; their conditions may differ.
# Columns and labels:
# photoreceptor cells [1] = test: Retinal explant culture, SNP induced apoptosis detected by TUNEL; format: cell-based, C57BL/6 mice; conditions: for Protection of photoreceptor cells from SNP induced apoptosis: retinal explants, TUNEL; for Protection of photoreceptor cells from SNP induced apoptosis / Protection of photoreceptor cells from SNP induced apoptosis at 25 μM: 300 μM SNP 24 h, 1 hour pre-treatment
# [2] = Lipophilicity of BP derivatives; format: physicochemical; conditions: FIG. 4
# Procedure: (§1) FIG. 4: Is a histogram of % protection afforded by a 25 μM concentration of each BP derivative BP1 to BP6 in photoreceptor cells as a function of the lipophilicity of each derivative. (P is a logarithmic value that indicates the lipophilicity of a compound).
# photoreceptor cells [3] = test: Light damage model in vivo, TUNEL; design: species or system albino balb/c mice; conditions: for Protection from light induced retinal damage (apoptosis of photoreceptors): 200 mg/kg IP, 1 hour pre-treatment, single injection
# Procedure: FIG. 7: In this figure the study was extended from ex vivo cultures to the light damage model in vivo. In this acute model of retinal disease albino balb/c mice are exposed to excessive white light causing the photoreceptor cells to die by apoptosis. […] The protection extends to 48 hours with only a single injection of BP3.
# FIG. 8 is a histogram of the results from FIG. 7. TUNEL positive cells in three independent retinae were counted. Counts were performed on the central 40× field of the outer nuclear layer (ONL) and graphed with error bars (+/−standard deviation-SD).
# (§2) Apoptosis detection by Terminal deoxynucleotidyl transferase-mediated biotinylated UTP nick end labeling (TUNEL): Retinal explants were fixed in 10% neutral buffered formalin overnight at 4° C., followed by cryoprotection in 25% sucrose overnight at 4° C. Frozen sections (7 μm) were incubated with terminal deoxynucleotidyl transferase (MSC, Dublin, Republic of Ireland) and fluorescein-12-dUTP (Roche, Lewes, UK) according to manufacturers' instructions at 37° C. for 1 h. Sections were mounted and viewed under a fluorescence microscope (Leica DM LB2; Leica, Nussloch, Germany) using an FITC filter.
# Light damage model: Balb/c mice were dark adapted for 18 h prior to exposure to constant light. Mice were injected intraperitoneally with the Active 1 hour prior to light damage. Immediately prior to light exposure their pupils were dilated with 0.5% cyclopentolate under red light. Retinal light damage was induced by exposure to 2 h of cool white fluorescent light at an illumination of 5000 lux. Following exposure to constant light, animals were placed in the dark for 24 h then killed immediately by cervical dislocation. TUNEL staining was performed as described above.
# photoreceptor cells [4] = test: rd10 chronic model of retinal degeneration; format: in vivo, rd10 mouse
# From the text: In this model photoreceptor cells degenerate more slowly than the light model, over weeks rather than hours to days. Cell death is evident from postnatal day 18 (P18) and by P25 a significant loss of photoreceptor cell layers is observed. […] In this model, the central and peripheral retina degenerate at different rates. The loss of photoreceptors is greater in the central retina than the periphery between P18 and P25.
# FIG. 10: The ONL comprises two types of cell; rod photoreceptors and cone photoreceptors. […] Rhodopsin is a protein specifically found in the outer segments (OS) of rod photoreceptors. […] Peanut agglutinin (PNA) is a lectin which binds to carbohydrates found in the outer membrane of cone photoreceptors but which are absent from rods.
# Frozen sections (7 μm) were blocked with 0.1% bovine serum albumin (BSA) in 0.1% tween/PBS for 1 hour at room temperature. Sections were incubated with anti-rhodopsin antibody (LAB VISION Corporation, Fremont, Calif., USA) overnight at 4° C. Sections were washed and incubated with FITC conjugated secondary mouse antibody (Dako, Glostrup, Denmark) for 1 hour at room temperature. Following further washes, sections were mounted and viewed under a fluorescence microscope (Leica DM LB2; Leica, Nussloch, Germany) using a FITC filter.
# Frozen sections (7 μm) were blocked with 0.1% bovine serum albumin (BSA) in 0.1% tween/PBS for 30 minutes at room temperature. Sections were incubated with rhodamine conjugated PNA (Invitrogen, Dun Laoghaire, Ireland) for 20 minutes at room temperature as per manufacturers' instructions. Sections were mounted and viewed under a fluorescence microscope (Leica DM LB2; Leica, Nussloch, Germany) using a TRITC filter.
# (§3) Frozen sections (7 μm) were stained in Hematoxylin (Sigma, Dublin, Ireland) for 10 seconds followed by a 15 minute water wash and 2-3 dips in acid alcohol. Following further washing, sections were placed in a 2% sodium bicarbonate (Sigma, Dublin, Ireland) solution for 30 seconds then dehydrated through an alcohol gradient. Sections were cleared in Histoclear (Sigma, Dublin, Ireland) for 5 minutes then mouted in DPX (BDH, VWR International Ltd., Poole, England) and viewed under a light microscope (Leica DM LB2; Leica, Nussloch, Germany).
# It is a better model of the slow progression of typical human autosomal recessive RP than the acute light model as photoreceptor cells are lost over a period of weeks rather than days. Loss of photoreceptors in the rd10 mouse begins at approximately 2 weeks of age, with the peak of photoreceptor death occurring at postnatal day (P) 25.
# [5] = Stability of BP derivatives; format: physicochemical
# photoreceptor cells [6] = test: SNP challenge in photoreceptor cells, protection by BP derivatives; format: cell-based
# Procedure: FIG. 2: Is a histogram of results showing the effectiveness of a 25 μM concentration of each of the BP derivatives BP-1 to BP6 against increasing concentrations of SNP in photoreceptor cells. Error bars are +/−standard deviation-SD.
# as §1
# ganglion cells = test: NMDA-induced excitotoxicity, acute model of Glaucoma; format: in vivo, balb/c mice
# Procedure: In this model intravitreal injection of 40 mM NMDA results in the progressive loss of ganglion cells from the ganglion cell layer (GCL), accompanied by a thinning of the inner plexiform layer (IPL) over time.
# By 48 and 72 hours post excitotoxicity the eventual loss of cells of the ONL is evident.
# FIG. 13 is a histogram of the data from FIG. 12.
# as §2
# as §3, with “Hematoxylin staining: Eyes were fixed in 10% neutral buffered formalin overnight at 4° C., followed by cryoprotection in 25% sucrose overnight at 4° C. Frozen” for “Frozen”
# Intravitreal Injections: Adult balb/c mice were anaesthetised using an intraperitoneal injection of ketamine hydrochloride 35-50 mg/kg (Pharmacia, Corby, Northamptonshire, UK) and xylazine hydrochloride 5-10 mg/kg (Chanelle Pharmaceuticals, Loughrea, Co. Galway, Ireland), and animals were placed in the pronate position. […]
# [7] = 200 mg/kg 1 hour prior to 40 mM NMDA injection, 48 and 72 hours post insult
structure (smiles),measurement,setting,value
"C#CC1(O)CC[C@H]2[C@@H]3CCC4=CC(=O)CC[C@@H]4[C@H]3CC[C@@]21CC (mixture of isomers) [norgestrel, reference compound]",Protection of photoreceptor cells from SNP induced apoptosis,photoreceptor cells [1],protected
COc1cc2c(cc1OC(C)=O)CCC(C)(C)O2 [BP1],"Lipophilicity (P), rank order",[2],BP1<BP2<BP3=BP5=BP6<BP4
COc1cc2c(cc1OC(=O)C(C)(C)C)CCC(C)(C)O2 [BP2],"Lipophilicity (P), rank order",[2],BP1<BP2<BP3=BP5=BP6<BP4
CCCCC(C)C(=O)Oc1cc2c(cc1OC)OC(C)(C)CC2 (centres unmarked) [BP3],Protection of photoreceptor cells from SNP induced apoptosis at 25 μM,photoreceptor cells [1]; FIGS. 5 and 6,effective
same,"Concentration at which BP3 is equally as effective, times lower than BP","photoreceptor cells [1]; SNP induced apoptosis, FIGS. 5 and 6",10 times
same,Protection of photoreceptor cells from SNP induced apoptosis,photoreceptor cells [1],protect photoreceptor cells from SNP induced apoptosis
same,Protection of photoreceptor cells from SNP induced apoptosis,photoreceptor cells [1]; listed as BP-3,inhibiting apoptosis; also recorded: better protection
same,"Lipophilicity (P), rank order",[2],BP1<BP2<BP3=BP5=BP6<BP4
same,Protection from light induced retinal damage (apoptosis of photoreceptors),photoreceptor cells [3],protects from the retinal damage observed
same,Protection from light induced retinal damage (apoptosis of photoreceptors),photoreceptor cells [3]; listed as BP-3,protected
same,"Protection from light induced cell death in the central retina (TUNEL positive cells, ONL)","photoreceptor cells [3]; at 24, 48 and 72 hours, 200 mg/kg, FIG. 8",approx 40%
same,Protection at 72 hours post light damage,photoreceptor cells [3]; second dose of 200 mg/kg at 24 hours post light damage,significant protection
same,Time to which protection extends,"photoreceptor cells [3]; single injection of 200 mg/kg, post light damage",48 h
same,Cone cells in the ONL (PNA staining),photoreceptor cells [4]; alternate days from P18 to P25,more cone cells
same,Rhodopsin positive cells (rods) in the ONL compared to vehicle,"photoreceptor cells [4]; alternate days from P18 to P25, immunofluorescent staining",more rhodopsin positive cells remain
same,Protection from photoreceptor cell death in the ONL,"photoreceptor cells [4]; injected daily with 200 mg/kg, P18 to P25, 200 mg/kg",protection from photoreceptor cell death in the ONL; also recorded: areas of the retina are protected
same,"Protection of retinal areas, alternate-day injection versus daily injection","photoreceptor cells [4]; injection on alternate days, all retinal areas",same level of protection as a daily injection regimen
same,Stability of the compound,[5],far more stable than BP4
same,Inhibition of apoptosis in retinal cells,photoreceptor cells [6],inhibiting apoptosis
same,Ganglion cell loss from the GCL,ganglion cells; [7],significantly attenuates
same,IPL thinning,ganglion cells; [7],significantly attenuates
same,"Protection from NMDA-induced cell death (TUNEL positive cells, all retinal layers)","ganglion cells; 200 mg/kg I.P. 1 hour prior to NMDA injection, 4, 24, 48 and 72 hours",significantly protects retinal cells in all layers at all time points examined; also recorded: significant protection
COc1cc2c(cc1OC(=O)c1ccccc1)CCC(C)(C)O2 [BP5],"Lipophilicity (P), rank order",[2],BP1<BP2<BP3=BP5=BP6<BP4
COc1cc2c(cc1OC(=O)c1ccccc1F)CCC(C)(C)O2 [BP6],"Lipophilicity (P), rank order",[2],BP1<BP2<BP3=BP5=BP6<BP4
"COc1cc2c(cc1O)CCC(C)(C)O2 [BP, 3,4-dihydro-6-hydroxy-7-methoxy-2,2-dimethyl-1(2H)-benzopyran]",Protection of photoreceptor cells from SNP induced apoptosis at 25 μM,photoreceptor cells [1]; FIGS. 5 and 6,effective
same,Protection of photoreceptor cells from SNP induced apoptosis,photoreceptor cells [1],protect photoreceptor cells from SNP induced apoptosis
